How the values were obtained:
[1] = test system: Group I self-splicing intron (ribozyme) from the 26S rRNA gene of Pneumocystis carinii, isolate Pc1; assay: In vitro self-splicing of the Group I intron, assayed by splicing of [32P]RNA precursor or by [alpha-32P]GTP incorporation; format: biochemical; conditions: for inhibition of splicing at 500 μM: inhibitor at 500 μM; for inhibition of splicing of the 26S rRNA intron: result in words, 5 mM MgCl2, 100 μM GTP unless otherwise indicated, 37° C., 20 minutes; for replacement of GTP in the splicing reaction: equal concentrations to GTP; for mode of inhibition (kinetic analysis): relative to GTP/guanosine
Procedure: Polymerase chain reaction (PCR) amplification (56) of the intron from the 26S rRNA gene and a portion of the 5' and 3' flanking exons (660 nucleotides of amplified rRNA gene), between nucleotides 1963 and 2267 of 26S rRNA of isolate Pc1 was performed with primers 4208 (5'-[…]-3') (SEQ ID NO:33), whose first 17 nucleotides are a bacteriophage SP6 promoter (57), and 4358 (5'-GACGAGGCATTTGGCTACC-3') (SEQ ID NO:35) in a DNA Thermal Cycler (Perkin-Elmer-Cetus), under conditions recommended by the manufacturer. For some experiments a longer PCR product (1296 nucleotides of amplified rRNA gene) was generated by similar methods, using primers 4208 and 3734 (5'-[…]-3') to amplify the region between nucleotides 1963 and 2903 of 26S rRNA. Transcription of PCR product DNA (1 μg) by SP6 RNA polymerase to produce E1-I-E2 RNA precursor (1296 or 660 nucleotides in length) was carried out using the Riboprobe System II (Promega) under the recommended conditions.
Radioactive RNA precursor (1296 nucleotides, 1 nM) was incubated at 37° C. for 30 minutes in the presence of 50 mM Tris-HCl, pH 7.5, 0.4 mM spermidine, 4 units of RNasin, 100 μM guanosine triphosphate (GTP) and the indicated concentrations of MgCl2 in a volume of 10 μl. Reactions were terminated by addition of 10 μl of 8M urea containing 5 mM Na-EDTA, pH 8.0, and 0.025% each of bromphenol blue and xylene cyanol, followed by heating at 65° C. for 3 minutes and PAGE, with visualization by autoradiography. Lane M contains RNA standards (molecular weights 1.77, 1.52, 1.28, 0.78, 0.53, 0.40, 0.28, and 0.16 kd, BRL), 5'-labeled with ^32 p using bacteriophage T4 polynucleotide kinase (Pharmacia). Lane 1, purified RNA precursor; lane 2, GTP omitted, 5 mM MgCl2; lane 3, no MgCl2, 1 mM EDTA; lanes 4-11, reactions run in the presence of 0, 1, 5, 25, 50, 100, 200 or 500 mM MgCl2, respectively. O indicates origin; P, RNA precursor; I, linear intron; E1-E2, spliced RNA product; C, presumed circularized intron. Bands corresponding to the 5' exon (E1) and G-intron-3' exon (I-E2) are not visible on this exposure.
FIGS. 13A through 13D show the inhibition of intron splicing by antibiotics. All experiments were done with 660 nucleotide RNA precursor. In vitro splicing of [^32 P]RNA precursor was performed in the presence of 5 mM MgCl2 and 100 μM GTP (unless otherwise indicated) at 37° C. for 20 minutes as in FIG. 12. Splicing of unpurified transcripts extracted from SP6 RNA polymerase reactions was performed with 12.5 nM of [α-^32 P]GTP replacing non-radioactive GTP. Bands are identified as in FIG. 12. FIG. 13A: Inhibition by gentamicin and tetracycline. Purified [^32 P]RNA precursor splicing was performed as indicated. Lane 1, control without GTP; lane 2, complete reaction without antibiotics; lanes 3-7, gentamicin present at 50, 100, 200, 250 and 500 μM; lanes 8-12, tetracycline present at 10, 50, 100, 200, and 400 μM. FIG. 13B: Inhibition of intron splicing by gentamicin and tetracycline. Splicing of non-radioactive RNA was assayed in the presence of [^32 P]GTP with no antibiotic (lanes 1 and 7), with 50, 100, 200, 300, and 500 μM gentamicin (lanes 2-6), and with 50, 100, 200, and 400 μM tetracycline (lanes 8-11). FIG. 13C: Splicing inhibition by ethidium bromide. Reactions of [^32 P]RNA precursor were run in the presence of 10 μM GTP (except lane 1 which contained neither GTP nor ethidium bromide); lanes 2-7, reactions run in the presence of ethidium bromide at 0, 0.5, 1, 5, 10, and 25 μM, respectively. […] FIG. 13D: Inhibition of splicing by ethidium bromide, as measured by incorporation of [α-^32 P]GTP. Lanes 1-5, reactions run in the presence of 0, 0.5, 1, 5 and 25 μM ethidium bromide, respectively.
FIGS. 14A and 14B show the inhibition of intron splicing by pentamidine. Reactions were performed as in FIG. 13, with 660 nucleotide RNA precursor. FIG. 14A: Assays of splicing of [^32 P]RNA precursor. […]

Saccharomyces cerevisiae = conditions: grown in glycerol versus fermentable sugars; cited from earlier work
[2] = test system: Group I self-splicing intron from the 16S rRNA gene of P. carinii; assay: In vitro self-splicing of the intron from the 16S rRNA gene; format: biochemical, Pneumocystis carinii; conditions: result in words
Source text: Inhibition by aminoglycosides of splicing of other group I introns has previously been described (55,61). […] Some radioactivity remaining at the gel origin and a decrease in precursor entering the gel in the presence of high levels of gentamicin (FIG. 13A) may reflect RNA binding by the antibiotic. […] This mechanism would be consistent with the lack of inhibition of splicing of group II introns by these agents (55,61).
Alternatively, the paired aromatic rings and/or positively charged moieties of pentamidine might act to distort the intron's secondary structure, which is critical to its catalytic function (63). […] If the ability of pentamidine analogues (49) to inhibit splicing correlates with in vivo activity against experimental PCP then this assay would be useful for this purpose.

Compound	inhibition of splicing at 500 μM [1]	inhibition of splicing of the 26S rRNA intron [1]	other results
CC1(C)S[C@@H]2[C@H](NC(=O)[C@H](N)c3ccccc3)C(=O)N2[C@H]1C(=O)O [Ampicillin]	failed to inhibit		
N=C(N)NCCC[C@@H](N)C(=O)O [D-arginine]		greater for L-arginine than D-arginine	
CN[C@@H]1[C@@H](O)[C@@H](O[C@@H]2[C@@H](O)[C@H](O[C@H]3O[C@H]([C@@H](C)O)[C@@H](O)[C@H](O)[C@H]3N)[C@@H](N)C[C@H]2N)OC[C@]1(C)O [G418]	failed to inhibit splicing		
Nc1nc2c(ncn2[C@@H]2O[C@H](COP(=O)(O)OP(=O)(O)O)[C@@H](O)[C@H]2O)c(=O)[nH]1 [GDP, guanosine diphosphate]			replacement of GTP in the splicing reaction [1]: replaceable by equal concentrations
Nc1nc2c(ncn2[C@@H]2O[C@H](COP(=O)(O)O)[C@@H](O)[C@H]2O)c(=O)[nH]1 [GMP, guanosine monophosphate]			replacement of GTP in the splicing reaction [1]: replaceable by equal concentrations
Nc1nc2c(ncn2[C@@H]2O[C@H](COP(=O)(O)OP(=O)(O)OP(=O)(O)O)[C@@H](O)[C@H]2O)c(=O)[nH]1 [GTP, guanosine triphosphate]			Km ([1]; in vitro splicing, 5 mM MgCl2, 37° C.): 3 µM
N=C(N)NCCC[C@H](N)C(=O)O [L-arginine]		greater for L-arginine than D-arginine	effect on the first step of the splicing reaction ([1]; kinetic analysis): inhibiting the first step; effect on the second step of the splicing reaction ([1]; kinetic analysis): activate the second step
N=C(N)c1ccc(OCCCCCOc2ccc(C(=N)N)cc2)cc1 [Pentamidine]		inhibited splicing	sensitivity of growth to pentamidine (Saccharomyces cerevisiae): more sensitive to pentamidine when grown in glycerol than in various fermentable sugars; inhibition of splicing of the 16S rRNA intron [2]: inhibited splicing; effect on the first step of the splicing reaction ([1]; kinetic analysis): acting on the first step; mode of inhibition (kinetic analysis) [1]: non-competitive
N=C(N)NCCC[C@H](N)C(=O)O [arginine]		inhibited competitively by high concentrations	mode of inhibition (kinetic analysis) [1]: competitively
O=C(O)C1=CC(=C(c2ccc(O)c(C(=O)O)c2)c2ccc(O)c(C(=O)O)c2)C=CC1=O [aurintricarboxylic acid]	failed to inhibit splicing by either assay		
O=C(N[C@H](CO)[C@H](O)c1ccc([N+](=O)[O-])cc1)C(Cl)Cl [chloramphenicol]	failed to inhibit splicing by either assay		
NC(=O)NCCC[C@H](N)C(=O)O [citrulline]		no detectable inhibition	
CCC[C@@H]1C[C@@H](C(=O)N[C@@H]([C@H]2O[C@H](SC)[C@H](O)[C@@H](O)[C@H]2O)[C@H](C)Cl)N(C)C1 [clindamycin]	failed to inhibit splicing by either assay		
C[C@@H]1C[C@@H]([C@H](O)CC2CC(=O)NC(=O)C2)C(=O)[C@@H](C)C1 [cycloheximide]	failed to inhibit splicing by either assay		
CC[n+]1c(-c2ccccc2)c2cc(N)ccc2c2ccc(N)cc21 [ethidium bromide]		completely inhibiting splicing by either assay	
COc1ccc(C[C@H](N)C(=O)N[C@H]2[C@@H](O)[C@H](n3cnc4c(N(C)C)ncnc43)O[C@@H]2CO)cc1 [puromycin]	failed to inhibit splicing by either assay		
[H]/N=C(/N)N[C@H]1[C@H](O)[C@@H](O)[C@H](O[C@@H]2O[C@@H](C)[C@](O)(C=O)[C@H]2O[C@@H]2O[C@@H](CO)[C@H](O)[C@@H](O)[C@@H]2NC)[C@@H](N/C(N)=N\[H])[C@@H]1O [streptomycin]			mode of inhibition (kinetic analysis) [1]: competition with guanosine
CN(C)C1C(=O)C(C(N)=O)=C(O)C2(O)C(=O)C3=C(O)c4c(O)cccc4C(C)(O)C3CC12 (centres unmarked) [tetracycline]		inhibits RNA splicing	mode of inhibition (kinetic analysis) [1]: non-competitive with GTP
gentamicin		inhibited splicing	sensitivity of splicing assayed by incorporation of [α-32P]GTP into I and I-E2 ([1]; compared with splicing of radioactive RNA precursor, 12.5 nM [α-32P]GTP): less sensitive
tri-arginine			potency relative to L-arginine / arginine ([1]; inhibition of splicing): at least 1,000 times

Source: patent US5849484A, “In vitro assay for inhibitors of the intron self-splicing reaction in Pneumocystis carinii” (University of Medicine & Dentistry of NJ, priority 1995, dated 1998)
